In patent US20240142467A1, “Use of Biomarkers in the Treatment of Fibrotic Conditions with a PDE4B-inhibitor” (Boehringer Ingelheim International GmbH, priority 2022, published 2024):

System: patients with idiopathic pulmonary fibrosis
Assay: Phase 2 trial NCT04419506: treatment-emergent adverse events
Conditions: for mean observed weight loss: over 12 weeks; for Any adverse event: 18 mg twice daily, 12 weeks
[1] = with background antifibrotics (N = 49)
[2] = without background antifibrotics
[3] = without background antifibrotics (N = 48)

Source text: The study was a double-blind, placebo-controlled, parallel-design, Phase 2 study performed at 90 sites in 22 countries. […] After completion of the 12-week treatment period, patients entered a 1-week follow-up period. Patients who prematurely discontinued study medication were asked to attend all visits as originally planned to minimize missing data. […] Patients, investigators, central reviewers, and those involved in the study conduct and analysis were unaware of the treatment assignments. An interactive voice-response system was used to perform randomization.
The secondary endpoint was the percentage of patients with treatment-emergent adverse events.
All treated patients were included in the safety analysis, stratified by use of background antifibrotics (no or yes), and the analysis was descriptive in nature. Safety was assessed by clinical and laboratory evaluation and the recording of treatment-emergent adverse events, as coded with the use of the Medical Dictionary for Regulatory Activities, version 22.0.

[O-][S@+]1CCc2nc(N3CCC(c4ncc(Cl)cn4)CC3)nc(NC3(CO)CCC3)c21 [Compound of formula A′]
mean observed weight loss (group with antifibrotics): -1.41 kg
mean observed weight loss (group without antifibrotics): -0.76 kg
patients with fatal adverse events (treatment arm, both background groups together): 2 patients
discontinuation of the study because of adverse events (with background antifibrotics): 10 patients
patients with gastrointestinal disorders (with background antifibrotics): 36.7%
patients with serious adverse events (with background antifibrotics): 6.1%
patients with severe adverse events (with background antifibrotics): 4.1%
Adverse events leading to discontinuation of study drug [1]: 10 (20.4) n (%)
Asthenia [1]: 1 (2.0) n (%)
Cough [1]: 4 (8.2) n (%)
Decreased appetite [1]: 2 (4.1) n (%)
Diarrhea [1]: 15 (30.6) n (%)
Diarrhea leading to discontinuation [1]: 3 (6.1) n (%)
Dyspepsia [1]: 2 (4.1) n (%)
Dyspnea [1]: 0 (0.0) n (%)
Fatigue [1]: 1 (2.0) n (%)
Flatulence [1]: 2 (4.1) n (%)
Gastrointestinal disorders [1]: 18 (36.7) n (%)
General disorders and administration site conditions [1]: 7 (14.3) n (%)
Headache [1]: 3 (6.1) n (%)
Infections and infestations [1]: 7 (14.3) n (%)
Investigations [1]: 10 (20.4) n (%)
Investigator-defined drug-related adverse events [1]: 18 (36.7) n (%)
Metabolism and nutrition disorders [1]: 3 (6.1) n (%)
Nasopharyngitis [1]: 4 (8.2) n (%)
Nausea [1]: 1 (2.0) n (%)
Nervous system disorder [1]: 9 (18.4) n (%)
Patients with pre-specified adverse events of special interest (vasculitis and hepatic injury) [1]: 1 (2.0) n (%)
Respiratory thoracic and mediastinal disorders [1]: 6 (12.2) n (%)
Serious adverse events: All [1]: 3 (6.1) n (%)
Serious adverse events: Other comparable medical criteria [1]: 0 (0.0) n (%)
Serious adverse events: Required or prolonged hospitalization [1]: 3 (6.1) n (%)
Serious adverse events: Resulted in death [1]: 1 (2.0) n (%)
Severe adverse events [1]: 2 (4.1) n (%)
Vomiting [1]: 2 (4.1) n (%)
Weight decreased [1]: 1 (2.0) n (%)
Any adverse event [1]: 36 (73.5) n (%)
patients with serious adverse events (without antifibrotics): 6.3%
discontinuation of the study because of adverse events [2]: 3 patients
patients with gastrointestinal disorders [2]: 27.1%
patients with severe adverse events [2]: 4.2%
Adverse events leading to discontinuation of study drug [3]: 3 (6.3) n (%)
Asthenia [3]: 3 (6.3) n (%)
Cough [3]: 3 (6.3) n (%)
Decreased appetite [3]: 1 (2.1) n (%)
Diarrhea [3]: 8 (16.7) n (%)
Diarrhea leading to discontinuation [3]: 0 (0.0) n (%)
Dyspepsia [3]: 3 (6.3) n (%)
Dyspnea [3]: 3 (6.3) n (%)
Fatigue [3]: 2 (4.2) n (%)
Flatulence [3]: 3 (6.3) n (%)
Gastrointestinal disorders [3]: 13 (27.1) n (%)
General disorders and administration site conditions [3]: 9 (18.8) n (%)
Headache [3]: 3 (6.3) n (%)
Infections and infestations [3]: 6 (12.5) n (%)
Investigations [3]: 5 (10.4) n (%)
Investigator-defined drug-related adverse events [3]: 9 (18.8) n (%)
Metabolism and nutrition disorders [3]: 1 (2.1) n (%)
Nasopharyngitis [3]: 0 (0.0) n (%)
Nausea [3]: 2 (4.2) n (%)
Nervous system disorder [3]: 4 (8.3) n (%)
Patients with pre-specified adverse events of special interest (vasculitis and hepatic injury) [3]: 0 (0.0) n (%)
Respiratory thoracic and mediastinal disorders [3]: 8 (16.7) n (%)
Serious adverse events: All [3]: 3 (6.3) n (%)
Serious adverse events: Other comparable medical criteria [3]: 1 (2.1) n (%)
Serious adverse events: Required or prolonged hospitalization [3]: 2 (4.2) n (%)
Serious adverse events: Resulted in death [3]: 1 (2.1) n (%)
Severe adverse events [3]: 2 (4.2) n (%)
Vomiting [3]: 1 (2.1) n (%)
Weight decreased [3]: 2 (4.2) n (%)
Any adverse event [3]: 31 (64.6) n (%)
